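96-well plates; 48 h exposure; 5 concentrations. Endpoints by linear interpolation between flanking doses. Not reached: highest tested concentration assigned. GI50 is the concentration that inhibits growth by half. The concentration for full growth arrest is given as TGI.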
Legend:
Assay in all cases: NCI-60 cell line screen, 48 h
[1] = tested on: OVCAR-3 ovarian
[2] = tested on: HS 578T breast
[3] = tested on: SW-620 colon
[4] = tested on: COLO 205 colon
[5] = tested on: 786-0 renal
[6] = tested on: MCF7 breast
[7] = tested on: HOP-92 NSCLC
[8] = tested on: SK-MEL-28 melanoma
[9] = tested on: SR leukemia
[10] = tested on: M14 melanoma
[11] = tested on: NCI-H23 lung
[12] = tested on: NCI-H460 lung
[13] = tested on: SK-OV-3 ovarian
[14] = tested on: U251 CNS
[15] = tested on: SF-539 CNS
[16] = tested on: SF-268 CNS
[17] = tested on: HCT-15 colon
[18] = tested on: HL-60(TB) leukemia
[19] = tested on: RPMI-8226 leukemia
[20] = tested on: OVCAR-8 ovarian
[21] = tested on: UO-31 renal
[22] = tested on: IGROV1 ovarian
[23] = tested on: SN12C renal
[24] = tested on: TK-10 renal
[25] = tested on: NCI/ADR-RES ovarian
[26] = tested on: A498 renal
[27] = tested on: MDA-MB-435
[28] = tested on: PC-3 prostate
[29] = tested on: EKVX NSCLC
[30] = tested on: MOLT-4 leukemia
[31] = tested on: NCI-H226 lung
[32] = tested on: HCT-116 colon
[33] = tested on: MALME-3M melanoma
[34] = tested on: LOX IMVI melanoma
[35] = tested on: SNB-19 CNS
[36] = tested on: T-47D breast
[37] = tested on: SK-MEL-5 melanoma
[38] = tested on: KM12 colon
[39] = tested on: CAKI-1 renal
[40] = tested on: A549 NSCLC
[41] = tested on: SF-295 CNS
[42] = tested on: UACC-62 melanoma
[43] = tested on: RXF 393 renal
[44] = tested on: CCRF-CEM leukemia
[45] = tested on: UACC-257 melanoma
[46] = tested on: OVCAR-5 ovarian
[47] = tested on: K-562 leukemia
[48] = tested on: HT29 colon
[49] = tested on: HOP-62 NSCLC
[50] = tested on: HCC-2998 colon
[51] = tested on: DU-145 prostate
[52] = tested on: OVCAR-4 ovarian
[53] = tested on: ACHN renal
[54] = tested on: BT-549 breast
[55] = tested on: SNB-75 CNS
[56] = tested on: NCI-H522 lung
[57] = tested on: MDA-MB-231 breast
[58] = tested on: SK-MEL-2 melanoma

COc1cc(/C=C\c2cc(/C=C\c3ccc(O)c(OC)c3)n(C(=O)COc3ccccc3)n2)ccc1O
GI50 [1]: 552 nM
TGI [1]: 2770 nM
GI50 [2]: 1120 nM
TGI [2]: 6840 nM
GI50 [3]: 608 nM
TGI [3]: 9020 nM
GI50 [4]: 1960 nM
TGI [4]: 3950 nM
GI50 [5]: 1060 nM
TGI [5]: 3580 nM
GI50 [6]: 343 nM
TGI [6]: 2830 nM
GI50 [7]: 3130 nM
TGI [7]: 20400 nM
GI50 [8]: 1120 nM
TGI [8]: 10400 nM
GI50 [9]: 318 nM
TGI [9]: 2460 nM
GI50 [10]: 343 nM
TGI [10]: 2680 nM
GI50 [11]: 1330 nM
TGI [11]: 6640 nM
GI50 [12]: 1250 nM
TGI [12]: 10200 nM
GI50 [13]: 1530 nM
TGI [13]: 3450 nM
GI50 [14]: 564 nM
TGI [14]: 5960 nM
GI50 [15]: 354 nM
TGI [15]: 2470 nM
GI50 [16]: 651 nM
TGI [16]: 5650 nM
GI50 [17]: 416 nM
TGI [17]: 7960 nM
GI50 [18]: 282 nM
TGI [18]: 901 nM
GI50 [19]: 377 nM
TGI [19]: 2360 nM
GI50 [20]: 2520 nM
TGI [20]: 8570 nM
GI50 [21]: 302 nM
TGI [21]: 4120 nM
GI50 [22]: 919 nM
TGI [22]: 8000 nM
GI50 [23]: 799 nM
TGI [23]: 7660 nM
GI50 [24]: 2910 nM
TGI [24]: 10900 nM
GI50 [25]: 559 nM
TGI [25]: 11700 nM
GI50 [26]: 2680 nM
TGI [26]: 6490 nM
GI50 [27]: 210 nM
TGI [27]: 492 nM
GI50 [28]: 1600 nM
TGI [28]: > 100000 nM
GI50 [29]: 2530 nM
TGI [29]: 10300 nM
GI50 [30]: 368 nM
TGI [30]: 3260 nM
GI50 [31]: 3150 nM
TGI [31]: 9940 nM
GI50 [32]: 386 nM
TGI [32]: 10000 nM
GI50 [33]: 585 nM
TGI [33]: 3710 nM
GI50 [34]: 550 nM
TGI [34]: 3290 nM
GI50 [35]: 1360 nM
TGI [35]: 9590 nM
GI50 [36]: 1620 nM
TGI [36]: 6950 nM
GI50 [37]: 834 nM
TGI [37]: 3520 nM
GI50 [38]: 500 nM
TGI [38]: 6810 nM
GI50 [39]: 657 nM
TGI [39]: 12400 nM
GI50 [40]: 2420 nM
TGI [40]: 11100 nM
GI50 [41]: 2780 nM
TGI [41]: 7700 nM
GI50 [42]: 326 nM
TGI [42]: 1270 nM
GI50 [43]: 1000 nM
TGI [43]: 2520 nM
GI50 [44]: 281 nM
TGI [44]: 1340 nM
GI50 [45]: 2210 nM
TGI [45]: 7340 nM
GI50 [46]: 2750 nM
TGI [46]: 6810 nM
GI50 [47]: 366 nM
TGI [47]: 10800 nM
GI50 [48]: 2670 nM
TGI [48]: 6350 nM
GI50 [49]: 1080 nM
TGI [49]: 4950 nM
GI50 [50]: 2270 nM
TGI [50]: 10200 nM
GI50 [51]: 1370 nM
TGI [51]: 8060 nM
GI50 [52]: 845 nM
TGI [52]: 12300 nM
GI50 [53]: 490 nM
TGI [53]: 11100 nM
GI50 [54]: 571 nM
TGI [54]: 4030 nM
GI50 [55]: 822 nM
TGI [55]: 5300 nM
GI50 [56]: 304 nM
TGI [56]: 970 nM
GI50 [57]: 2380 nM
TGI [57]: 15300 nM
GI50 [58]: 661 nM
TGI [58]: 3560 nM
